From ChEMBL document CHEMBL1201861, “Genomics of Drug Sensitity in Cancer screening data, Wellcome Trust Sanger Institute”

Columns and labels:
[1] = system: BC-3; assay: cells; format: functional, cell-based; details: Homo sapiens;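 note: cell viability assay measuring growth inhibition of human BC-3 cells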
Description: SANGER: Inhibition of human BC-3 cell growth in a cell viability assay.

[2] = system: HCT-15; assay: cells; format: functional, cell-based, Homo sapiens; details: Homo sapiens, HCT-15;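 note: cell viability readout, IC50 reflecting suppression of HCT-15 cell growth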
Description: SANGER: Inhibition of human HCT-15 cell growth in a cell viability assay.

[3] = system: SU-DHL-1; assay: SANGER: Inhibition of human SU-DHL-1 cell growth in a cell viability assay.; format: functional, cell-based
[4] = system: IST-SL2; assay: cells; format: functional, cell-based; details: Homo sapiens;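 note: growth inhibition of human IST-SL2 cells, read out by a cell viability assay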
Description: SANGER: Inhibition of human IST-SL2 cell growth in a cell viability assay.

[5] = system: SIG-M5; assay: cells; format: functional, cell-based; details: Homo sapiens;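 note: cell viability assay read-out, measuring how strongly growth of cultured human SIG-M5 cells is inhibited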
Description: SANGER: Inhibition of human SIG-M5 cell growth in a cell viability assay.

[6] = system: SJRH30; assay: cells; format: functional, cell-based; details: Homo sapiens;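 note: growth inhibition of human SJRH30 cells, read out with a cell viability assay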
Description: SANGER: Inhibition of human SJRH30 cell growth in a cell viability assay.

[7] = system: NCCIT; assay: SANGER: Inhibition of human NCCIT cell growth in a cell viability assay.; format: functional, cell-based
[8] = system: CA46; assay: cells; format: functional, cell-based; details: Homo sapiens;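 note: growth inhibition of human CA46 cells, read out by a cell viability assay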
Description: SANGER: Inhibition of human CA46 cell growth in a cell viability assay.

[9] = system: CESS; assay: SANGER: Inhibition of human CESS cell growth in a cell viability assay.; format: functional, cell-based
[10] = system: TE-15; assay: cells; format: functional, cell-based; details: Homo sapiens;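 note: cell viability readout of growth inhibition in TE-15 cells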
Description: SANGER: Inhibition of human TE-15 cell growth in a cell viability assay.

[11] = system: NCI-H322M; assay: cells; format: functional, cell-based; details: Homo sapiens;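 note: cell viability assay measuring inhibition of growth of human NCI-H322M cells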
Description: SANGER: Inhibition of human NCI-H322M cell growth in a cell viability assay.

[12] = system: Kasumi 1; assay: cells; format: functional, cell-based; details: Homo sapiens;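 note: growth inhibition of human Kasumi-1 cells, read out by a cell viability assay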
Description: SANGER: Inhibition of human KASUMI-1 cell growth in a cell viability assay.

[13] = system: THP-1; assay: cells; format: functional, cell-based; details: Homo sapiens;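 note: growth inhibition of THP-1 cells, read out via a cell viability assay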
Description: SANGER: Inhibition of human THP-1 cell growth in a cell viability assay.

[14] = system: RL95-2; assay: cells; format: functional, cell-based; details: Homo sapiens;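 note: RL95-2 growth inhibition determined through a cell viability readout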
Description: SANGER: Inhibition of human RL95-2 cell growth in a cell viability assay.

[15] = system: SCC-3; assay: cells; format: functional, cell-based; details: Homo sapiens;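 note: cell viability assay measuring inhibition of SCC-3 cell growth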
Description: SANGER: Inhibition of human SCC-3 cell growth in a cell viability assay.

[16] = system: NCI-H1703; assay: cells; format: functional, cell-based, Homo sapiens; details: Homo sapiens, NCI-H1703;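 note: growth inhibition of NCI-H1703 cells, read out via a cell viability assay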
Description: SANGER: Inhibition of human NCI-H1703 cell growth in a cell viability assay.

[17] = system: EB2; assay: cells; format: functional, cell-based; details: Homo sapiens;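 note: growth inhibition of EB2 cells, read out with a cell viability assay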
Description: SANGER: Inhibition of human EB2 cell growth in a cell viability assay.

[18] = system: NCI-H2227; assay: cells; format: functional, cell-based; details: Homo sapiens;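 note: growth inhibition of the human cell line, read out with a cell viability assay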
Description: SANGER: Inhibition of human NCI-H2227 cell growth in a cell viability assay.

[19] = system: IM-9; assay: SANGER: Inhibition of human IM-9 cell growth in a cell viability assay.; format: functional, cell-based
[20] = system: SCLC-21H; assay: cells; format: functional, cell-based; details: Homo sapiens;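 note: growth inhibition of cultured human SCLC-21H cells, read out with a cell viability assay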
Description: SANGER: Inhibition of human SCLC-21H cell growth in a cell viability assay.

[21] = system: HT55; assay: cells; format: functional, cell-based, Homo sapiens; details: Homo sapiens, HT55;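 note: cell viability readout measuring growth inhibition of human HT55 cells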
Description: SANGER: Inhibition of human HT55 cell growth in a cell viability assay.

[22] = system: HSC-4; assay: cells; format: functional, cell-based, Homo sapiens; details: Homo sapiens, HSC-4;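 note: growth inhibition of human HSC-4 cells, read out with a cell viability assay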
Description: SANGER: Inhibition of human HSC-4 cell growth in a cell viability assay.

[23] = system: CAL-148; assay: cells; format: functional, cell-based; details: Homo sapiens
Description: SANGER: Inhibition of human CAL-148 cell growth in a cell viability assay.

[24] = system: DG-75; assay: cells; format: functional, cell-based; details: Homo sapiens;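 note: growth inhibition of DG-75 cells, read out with a cell viability assay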
Description: SANGER: Inhibition of human DG-75 cell growth in a cell viability assay.

[25] = system: CMK; assay: cells; format: functional, cell-based; details: Homo sapiens;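 note: growth inhibition of CMK cells, read out as cell viability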
Description: SANGER: Inhibition of human CMK cell growth in a cell viability assay.

[26] = system: LC4-1; assay: cells; format: functional, cell-based; details: Homo sapiens;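 note: growth inhibition of LC4-1 cells, read out with a cell viability assay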
Description: SANGER: Inhibition of human LC4-1 cell growth in a cell viability assay.

[27] = system: 23132-87; assay: cells; format: functional, cell-based, Homo sapiens; details: Homo sapiens
Description: SANGER: Inhibition of human 23132-87 cell growth in a cell viability assay.

[28] = system: RL; assay: cells; format: functional, cell-based; details: Homo sapiens
Description: SANGER: Inhibition of human RL cell growth in a cell viability assay.

[29] = system: COR-L279; assay: SANGER: Inhibition of human COR-L279 cell growth in a cell viability assay.; format: functional, cell-based
[30] = system: NCI-H2009; assay: cells; format: functional, cell-based, Homo sapiens; details: Homo sapiens, NCI-H2009;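 note: cell viability assay measuring inhibition of NCI-H2009 cell growth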
Description: SANGER: Inhibition of human NCI-H2009 cell growth in a cell viability assay.

[31] = system: LOUCY; assay: cells; format: functional, cell-based; details: Homo sapiens;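 note: growth inhibition of human LOUCY cells, read out with a cell viability assay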
Description: SANGER: Inhibition of human LOUCY cell growth in a cell viability assay.

[32] = system: NCI-H524; assay: cells; format: functional, cell-based; details: Homo sapiens;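 note: growth inhibition of human NCI-H524 cells, read out through a cell viability assay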
Description: SANGER: Inhibition of human NCI-H524 cell growth in a cell viability assay.

[33] = system: NCI-H64; assay: cells; format: functional, cell-based; details: Homo sapiens;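 note: growth inhibition of NCI-H64 cells, read out with a cell viability assay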
Description: SANGER: Inhibition of human NCI-H64 cell growth in a cell viability assay.

[34] = system: ARH-77; assay: cells; format: functional, cell-based; details: Homo sapiens;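 note: growth inhibition of ARH-77 cells, read out by a cell viability assay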
Description: SANGER: Inhibition of human ARH-77 cell growth in a cell viability assay.

[35] = system: TE-441-T; assay: cells; format: functional, cell-based; details: Homo sapiens
Description: SANGER: Inhibition of human TE-441-T cell growth in a cell viability assay.

[36] = system: NCI-H345; assay: cells; format: functional, cell-based; details: Homo sapiens;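 note: growth inhibition of NCI-H345 cells measured with a cell viability assay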
Description: SANGER: Inhibition of human NCI-H345 cell growth in a cell viability assay.

[37] = system: U-698-M; assay: cells; format: functional, cell-based; details: Homo sapiens
Description: SANGER: Inhibition of human U-698-M cell growth in a cell viability assay.

[38] = system: NCI-H1436; assay: cells; format: functional, cell-based; details: Homo sapiens;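 note: growth suppression of human NCI-H1436 cells, determined with a cell viability readout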
Description: SANGER: Inhibition of human NCI-H1436 cell growth in a cell viability assay.

[39] = system: JIYOYE; assay: cells; format: functional, cell-based; details: Homo sapiens
Description: SANGER: Inhibition of human JiyoyeP-2003 cell growth in a cell viability assay.

[40] = system: SNU-16; assay: cells; format: functional, cell-based; details: Homo sapiens;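 note: growth inhibition of human SNU-16 cells, determined with a cell viability readout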
Description: SANGER: Inhibition of human NCI-SNU-16 cell growth in a cell viability assay.

[41] = system: RPMI-6666; assay: cells; format: functional, cell-based; details: Homo sapiens
Description: SANGER: Inhibition of human RPMI-6666 cell growth in a cell viability assay.

[42] = system: MONO-MAC-6; assay: cells; format: functional, cell-based; details: Homo sapiens;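 note: cell viability assay measuring growth inhibition of human MONO-MAC-6 cells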
Description: SANGER: Inhibition of human MONO-MAC-6 cell growth in a cell viability assay.

[43] = system: MEL-JUSO; assay: cells; format: functional, cell-based, Homo sapiens; details: Homo sapiens, MEL-JUSO;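 note: growth inhibition of human MEL-JUSO cells, read out with a cell viability assay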
Description: SANGER: Inhibition of human MEL-JUSO cell growth in a cell viability assay.

[44] = system: MHH-CALL-2; assay: cells; format: functional, cell-based; details: Homo sapiens;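 note: growth inhibition of the cell line, read out in a cell viability assay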
Description: SANGER: Inhibition of human MHH-CALL-2 cell growth in a cell viability assay.

[45] = system: UACC-812; assay: cells; format: functional, cell-based; details: Homo sapiens
Description: SANGER: Inhibition of human UACC-812 cell growth in a cell viability assay.

[46] = system: SNU-C1; assay: cells; format: functional, cell-based; details: Homo sapiens;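 note: growth inhibition of SNU-C1 human cells, read out by a cell viability assay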
Description: SANGER: Inhibition of human SNU-C1 cell growth in a cell viability assay.

[47] = system: TALL-1; assay: cells; format: functional, cell-based; details: Homo sapiens;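 note: growth inhibition of cultured human TALL-1 cells, read out by a cell viability assay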
Description: SANGER: Inhibition of human TALL-1 cell growth in a cell viability assay.

[48] = system: HuO9; assay: cells; format: functional, cell-based, Homo sapiens; details: Homo sapiens, HuO9;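 note: growth inhibition of HuO9 cells, read out with a cell viability assay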
Description: SANGER: Inhibition of human HuO9 cell growth in a cell viability assay.

## COC(=O)CNC(=O)C(=O)OC
[1]
  IC50: 305 µM
[2]
  IC50: 1820 µM
[3]
  IC50: 125 µM
[4]
  IC50: 157 µM
[5]
  IC50: 57.6 µM
[6]
  IC50: 1550 µM
[7]
  IC50: 99.8 µM
[8]
  IC50: 96 µM
[9]
  IC50: 60.8 µM
[10]
  IC50: 218 µM
[11]
  IC50: > 4000 µM
[12]
  IC50: 122 µM
[13]
  IC50: > 4000 µM
[14]
  IC50: 3590 µM
[15]
  IC50: 1740 µM
[16]
  IC50: 1660 µM
[17]
  IC50: 297 µM
[18]
  IC50: 3060 µM
[19]
  IC50: > 4000 µM
[20]
  IC50: > 4000 µM
[21]
  IC50: 554 µM
[22]
  IC50: 414 µM
[23]
  IC50: > 4000 µM
[24]
  IC50: 1050 µM
[25]
  IC50: 126 µM
[26]
  IC50: 99.8 µM
[27]
  IC50: > 4000 µM
[28]
  IC50: 601 µM
[29]
  IC50: > 4000 µM
[30]
  IC50: 296 µM
[31]
  IC50: 10.3 µM
[32]
  IC50: 2760 µM
[33]
  IC50: 273 µM
[34]
  IC50: 260 µM
[35]
  IC50: 1870 µM
[36]
  IC50: 648 µM
[37]
  IC50: 13.3 µM
[38]
  IC50: > 4000 µM
[39]
  IC50: 291 µM
[40]
  IC50: > 4000 µM
[41]
  IC50: 228 µM
[42]
  IC50: 202 µM
[43]
  IC50: 275 µM
[44]
  IC50: 173 µM
[45]
  IC50: 3010 µM
[46]
  IC50: 2100 µM
[47]
  IC50: > 4000 µM
[48]
  IC50: 589 µM

## COc1cc([C@@H]2c3cc4c(cc3[C@@H](O[C@@H]3O[C@@H]5CO[C@@H](C)O[C@H]5[C@H](O)[C@H]3O)[C@H]3COC(=O)[C@H]23)OCO4)cc(OC)c1O [ETOPOSIDE]
[1]
  IC50: 2.48 µM
[2]
  IC50: 7.87 µM
[3]
  IC50: 0.959 µM
[4]
  IC50: 0.85 µM
[5]
  IC50: 0.131 µM
[6]
  IC50: 4.72 µM
[7]
  IC50: > 16 µM
[8]
  IC50: > 16 µM
[9]
  IC50: 0.384 µM
[10]
  IC50: 0.96 µM
[11]
  IC50: > 16 µM
[12]
  IC50: 1.32 µM
[13]
  IC50: > 16 µM
[14]
  IC50: 1.11 µM
[15]
  IC50: 1.21 µM
[16]
  IC50: 1.3 µM
[17]
  IC50: 0.391 µM
[18]
  IC50: > 16 µM
[19]
  IC50: > 16 µM
[20]
  IC50: > 16 µM
[21]
  IC50: > 16 µM
[22]
  IC50: 1.26 µM
[23]
  IC50: 0.625 µM
[24]
  IC50: > 16 µM
[25]
  IC50: 2.68 µM
[26]
  IC50: 3.23 µM
[27]
  IC50: 0.501 µM
[28]
  IC50: > 16 µM
[29]
  IC50: 1.27 µM
[30]
  IC50: 0.697 µM
[31]
  IC50: 0.177 µM
[32]
  IC50: > 16 µM
[33]
  IC50: 4 µM
[34]
  IC50: 2.19 µM
[35]
  IC50: > 16 µM
[36]
  IC50: > 16 µM
[37]
  IC50: 12.5 µM
[38]
  IC50: > 16 µM
[39]
  IC50: 2.54 µM
[40]
  IC50: > 16 µM
[41]
  IC50: 1.03 µM
[42]
  IC50: 12.1 µM
[43]
  IC50: 0.657 µM
[44]
  IC50: > 16 µM
[45]
  IC50: > 16 µM
[46]
  IC50: > 16 µM
[47]
  IC50: > 16 µM
[48]
  IC50: 0.926 µM

## Cc1cnc(-c2cnc(NCCNc3ccc(C#N)cn3)nc2-c2ccc(Cl)cc2Cl)[nH]1 [LADUVIGLUSIB]
[1]
  IC50: > 2.56 µM
[2]
  IC50: > 2.56 µM
[3]
  IC50: > 2.56 µM
[4]
  IC50: > 2.56 µM
[5]
  IC50: > 2.56 µM
[6]
  IC50: > 2.56 µM
[7]
  IC50: > 2.56 µM
[8]
  IC50: > 2.56 µM
[9]
  IC50: > 2.56 µM
[10]
  IC50: > 2.56 µM
[11]
  IC50: > 2.56 µM
[12]
  IC50: > 2.56 µM
[13]
  IC50: > 2.56 µM
[14]
  IC50: > 2.56 µM
[15]
  IC50: > 2.56 µM
[16]
  IC50: > 2.56 µM
[17]
  IC50: > 2.56 µM
[18]
  IC50: > 2.56 µM
[19]
  IC50: > 2.56 µM
[20]
  IC50: > 2.56 µM
[21]
  IC50: > 2.56 µM
[22]
  IC50: > 2.56 µM
[23]
  IC50: > 2.56 µM
[24]
  IC50: > 2.56 µM
[25]
  IC50: > 2.56 µM
[26]
  IC50: > 2.56 µM
[27]
  IC50: > 2.56 µM
[28]
  IC50: > 2.56 µM
[29]
  IC50: > 2.56 µM
[30]
  IC50: > 2.56 µM
[31]
  IC50: > 2.56 µM
[32]
  IC50: > 2.56 µM
[33]
  IC50: > 2.56 µM
[34]
  IC50: > 2.56 µM
[35]
  IC50: > 2.56 µM
[36]
  IC50: > 2.56 µM
[37]
  IC50: > 2.56 µM
[38]
  IC50: > 2.56 µM
[39]
  IC50: > 2.56 µM
[40]
  IC50: > 2.56 µM
[41]
  IC50: > 2.56 µM
[42]
  IC50: > 2.56 µM
[43]
  IC50: > 2.56 µM
[44]
  IC50: > 2.56 µM
[45]
  IC50: > 2.56 µM
[46]
  IC50: > 2.56 µM
[47]
  IC50: > 2.56 µM
[48]
  IC50: > 2.56 µM
